In data set [1] the target is Histamine H3 receptor (Rattus norvegicus, UniProt Q9QYN8). In words: Displacement of N-[3H]methylhistamine from histamine H3 receptor in rat cortex membrane. The format is cell membranes.
Data set [2] can be described thus: Tmax in rat at 10 mg/kg, po. It counts as ADME, organism-based. Conditions: in vivo. On the set-up: dose 10 mg/kg, route oral.
The nature of data set [3]: Half life in rat at 10 mg/kg, po. It counts as ADME, organism-based. Details: dose 10 mg/kg, route oral. The conditions noted are these: in vivo.
Data set [4] in a line: Bioavailability in rat at 10 mg/kg, po. Conditions: in vivo. The format is ADME, organism-based.
Data set [5] has as its target T1, Histamine H3 receptor (Homo sapiens, UniProt Q9Y5N1). Nature of the data set: Antagonist activity at human histamine H3 receptor expressed in CHOK1 cells by [3H]R(-)-alpha-methylhistamine displacement assay. The format is cell-based, CHO-K1.
Data set [6] deals with T1, Histamine H3 receptor. In words: Inverse agonist activity at human H3 receptor expressed in CHOK1 cells by GTPgammaS binding assay. The format is functional, cell-based, CHO-K1.
For data set [7], the species on record is Rattus norvegicus. In words: Inhibition of R(-)-alpha-methylhistamine-induced drinking response in rat dipsogenia model after 0.5 hrs. It counts as functional, organism-based.

The text below walks through data of ChEMBL document CHEMBL1158153, “Novel H3 receptor antagonists with improved pharmacokinetic profiles” (Bioorg Med Chem Lett, 2008).

T1 sequence (Q9Y5N1 whole entry): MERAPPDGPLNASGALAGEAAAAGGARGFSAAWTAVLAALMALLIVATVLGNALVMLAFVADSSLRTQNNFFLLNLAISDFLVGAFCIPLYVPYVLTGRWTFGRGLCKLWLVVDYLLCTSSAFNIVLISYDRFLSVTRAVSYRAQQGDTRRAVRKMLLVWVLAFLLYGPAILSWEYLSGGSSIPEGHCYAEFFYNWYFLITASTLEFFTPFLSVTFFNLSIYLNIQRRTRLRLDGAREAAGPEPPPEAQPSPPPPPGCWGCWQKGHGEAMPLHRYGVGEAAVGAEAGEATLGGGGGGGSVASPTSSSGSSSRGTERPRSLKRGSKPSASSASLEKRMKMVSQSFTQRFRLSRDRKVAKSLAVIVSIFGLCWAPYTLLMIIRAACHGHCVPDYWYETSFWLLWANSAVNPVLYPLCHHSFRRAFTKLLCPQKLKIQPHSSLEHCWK
Histamine H3 receptor (Rattus norvegicus, UniProt Q9QYN8), sequence (Q9QYN8 whole entry): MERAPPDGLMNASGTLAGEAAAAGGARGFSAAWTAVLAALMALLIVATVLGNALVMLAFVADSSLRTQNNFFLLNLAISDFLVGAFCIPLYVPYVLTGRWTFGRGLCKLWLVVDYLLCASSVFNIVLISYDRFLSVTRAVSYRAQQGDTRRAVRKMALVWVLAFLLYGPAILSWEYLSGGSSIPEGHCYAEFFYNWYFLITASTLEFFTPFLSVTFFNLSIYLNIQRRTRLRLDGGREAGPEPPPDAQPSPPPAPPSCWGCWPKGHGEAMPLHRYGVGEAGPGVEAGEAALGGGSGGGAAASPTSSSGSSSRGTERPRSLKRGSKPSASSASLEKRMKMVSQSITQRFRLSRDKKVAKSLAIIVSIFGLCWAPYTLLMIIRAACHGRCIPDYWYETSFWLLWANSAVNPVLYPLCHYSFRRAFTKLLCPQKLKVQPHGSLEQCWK

Consider `C[C@@H]1CCCN1CCc1ccc(C2=CC[C@H]3CN(C(=O)c4cccnc4)C[C@@H]23)cc1`, for which, in data set [1], the inhibition constant Ki came out at 1 nM.

Take `O=C(N1CCOCC1)N1C[C@@H]2CC=C(c3ccc(CCN4CCCC4)cc3)[C@@H]2C1`: in data set [1], the affinity corresponds to a Ki of 12 nM.

`CC(C)C(=O)N1C[C@@H]2CC=C(c3ccc(CCN4CCC[C@H]4C)cc3)[C@@H]2C1`: the affinity in data set [1] corresponds to a Ki of 0.4 nM.

In data set [1], `O=C(NC1CCCC1)N1C[C@@H]2CC=C(c3ccc(CCN4CCCC4)cc3)[C@@H]2C1` returned a Ki of 16 nM.

In the case of `CN(C)C(=O)N1C[C@@H]2CC=C(c3ccc(CCN4CCCC4)cc3)[C@@H]2C1`, the Ki in data set [1] came out at 13 nM.

`CC(C)C(=O)N1C[C@@H]2CC=C(c3ccc(CCN4CCCC4)cc3)[C@@H]2C1` returned a Ki in data set [1] of 5 nM.

In data set [1], `CS(=O)(=O)N1C[C@@H]2CC=C(c3ccc(CCN4CCCC4)cc3)[C@@H]2C1` registered an inhibitory constant (Ki) of 27 nM.

Take `CC(C)NC(=O)N1C[C@@H]2CC=C(c3ccc(CCN4CCCC4)cc3)[C@@H]2C1`: in data set [1], the Ki is 20 nM. In data set [2], the Tmax was 0.3 h. The half-life in data set [3] is 7.3 h. The compound also yielded a bioavailability in data set [4] of 22%.

In turn, `C[C@@H]1CCCN1CCc1ccc(C2=CC[C@H]3CN(C(=O)c4ccccc4)C[C@@H]23)cc1` displayed a Ki in data set [1] of 3 nM.

In data set [1], `O=C(c1cccnc1)N1C[C@@H]2CC=C(c3ccc(CCN4CCCC4)cc3)[C@@H]2C1` yielded a Ki of 6 nM.

`O=C(C1CCOC1)N1C[C@@H]2CC=C(c3ccc(CCN4CCCC4)cc3)[C@@H]2C1` (stereo not given in full): the Ki in data set [1] is 4 nM.

The compound `CC(C)S(=O)(=O)N1C[C@@H]2CC=C(c3ccc(CCN4CCCC4)cc3)[C@@H]2C1` gave a Ki in data set [1] of 12 nM. For the same compound, in data set [2], the Tmax worked out at 0.2 h. The compound also showed a half-life in data set [3] of 5 h. The bioavailability in data set [4] turned out to be 3%.

In turn, `O=C(c1ccccc1)N1C[C@@H]2CC=C(c3ccc(CCN4CCCC4)cc3)[C@@H]2C1` had a Ki in data set [1] of 21 nM.

In data set [1], `O=S(=O)(c1ccccc1)N1C[C@@H]2CC=C(c3ccc(CCN4CCCC4)cc3)[C@@H]2C1` came in with a Ki of 17 nM.

As for `C[C@@H]1CCCN1CCc1ccc(C2=CC[C@H]3CN(C(=O)C4CCOCC4)C[C@@H]23)cc1`, the Ki stood at 0.7 nM in data set [1], 2 nM in data set [5] and 4 nM in data set [6]. Further, in data set [2], the time of peak concentration (Tmax) is 0.3 h. In addition, the half-life in data set [3] is 2.5 h. Besides, the bioavailability in data set [4] was 66%. Also, the Activity entry in data set [7] was “Dose-dependent effect”.

Consider `C[C@@H]1CCCN1CCc1ccc(C2=CC[C@H]3CN(C(=O)C4CCCC4)C[C@@H]23)cc1`, for which, in data set [1], the inhibitory constant (Ki) was found to be 0.4 nM.

Consider `O=C(CO)N1C[C@@H]2CC=C(c3ccc(CCN4CCCC4)cc3)[C@@H]2C1`, for which affinity in data set [1] was put at a Ki of 6 nM. The Tmax in data set [2] was found to be 0.6 h. The same compound had a half-life in data set [3] of 1.8 h. Further, in data set [4], the bioavailability came out at 39%.

The compound `O=S(=O)(Cc1ccccc1)N1C[C@@H]2CC=C(c3ccc(CCN4CCCC4)cc3)[C@@H]2C1` gave a Ki in data set [1] of 12 nM.

As to `O=C(Cc1ccccc1)N1C[C@@H]2CC=C(c3ccc(CCN4CCCC4)cc3)[C@@H]2C1`, the affinity in data set [1], expressed as Ki, was 7 nM.

In data set [1], `C[C@@H]1CCCN1CCc1ccc(C2=CC[C@H]3CN(C(=O)Cc4ccccc4)C[C@@H]23)cc1` returned a Ki of 0.3 nM.

`C1=C(c2ccc(CCN3CCCC3)cc2)[C@@H]2CN(CC3CC3)C[C@@H]2C1`: the Ki is 0.9 nM in data set [5] and 1 nM in data set [6]. The Tmax in data set [2] came to 6 h. For the same compound, the half-life in data set [3] was 6 h.

Regarding `O=C(C1CCCC1)N1C[C@@H]2CC=C(c3ccc(CCN4CCCC4)cc3)[C@@H]2C1`, the affinity in data set [1], expressed as Ki, was 3 nM.
